Among the data in paper PMC7282811 are Kd values, retold here.

Assay [1] has as its target T1, dopamine D1 receptor (D1R) (Mus musculus, UniProt Q61616).
T1 construct: gene Drd1; native full-length receptor, endogenous in membranes of STHdh^Q7 mouse striatal cells; part may be in D1R-H3R heteromers
The experiment in a line: radioligand saturation binding, cell membranes, filtration. The note with it: labelled compound; STHdh^Q7 cell membranes; 50 mM Tris-HCl pH 7.4, 10 mM MgCl2, 25 °C; nonspecific with 30 µM unlabelled ligand; read-out: binding parameters. As to the method: radioligand saturation binding, cell membranes, filtration on dopamine D1 receptor (D1R) | membranes were incubated with increasing free concentrations of [^3H]

In assay [2] the target is T1, dopamine D1 receptor (D1R). Also noted: species or system STHdh^Q7 or STHdh^Q111 mouse striatal cells; radioligand binding to striatal cell membranes, KD from saturation and competition curves. The note with it: STHdh^Q111 cell membranes; binder. As to the method: Supplementary file elife-51093-supp1.docx: Supplementary file 1. H3R and D1R binding parameters in STHdh^Q7, STHdh^Q111 cells. Striatal cells were homogenized in 50 mM Tris-HCl buffer and ligand binding was performed with membrane suspension (see materials and methods). Binding parameters from saturation and competition curves were obtained using Grafit software by fitting the binding data to the equation previously deduced (equation (3) in [Gracia et al., 2013]. Data are mean ± SEM of experiments performed per triplicate.

A further assay has as its target T2, D1R (Mus musculus, UniProt Q61616).
T2 construct: gene Drd1; native receptor, endogenous in mouse brain tissue membranes
The experiment in a line: tissue or organelle. Also noted: species or system brain tissue of 8-month-old Hdh^Q7/Q7 or Hdh^Q7/Q111 mice; radioligand binding to mouse brain region membranes, KD from saturation and competition curves. As to the method:
(§1) Supplementary file elife-51093-supp2.docx: Supplementary file 2. H3R and D1R binding parameters in different brain regions from 8-month-old Hdh^Q7/Q7 and Hdh^Q7/Q111 mice. Mouse striatal, cortical or hippocampal tissue were homogenized in 50 mM Tris-HCl buffer and ligand binding was performed with membrane suspension (see online methods). Binding parameters from saturation and competition curves were obtained using Grafit software by fitting the binding data to the equation previously deduced (equation (3) in [Gracia et al., 2013]. Data are mean ± SEM of experiments performed per triplicate (n = 6 Hdh^Q7/Q7 and n = 5 Hdh^Q7/Q111). To test whether D1R-H3R heteromers can indeed be targets for treating HD, we investigated their expression and function in the striatum, cerebral cortex and hippocampus of a widely accepted preclinical model of HD, the heterozygous Hdh^Q7/Q111 mutant knock-in mice, and their wild-type Hdh^Q7/Q7 littermates ([Giralt et al., 2012]; [Puigdellívol et al., 2015]). By PLA we confirmed that both Hdh^Q7/Q7 and Hdh^Q7/Q111 mice display D1R-H3R heteromers at 2 months (mo) (Figure 2—figure supplement 1) and four mo (Figure 2A,B) of age in all brain regions tested. […] Heteromer expression was similar in all brain areas and no differences were observed between genotypes at 4 mo of age (Figure 2B). […] Although at 8 mo of age we detected a partial decrease in striatal D1R expression in Hdh^Q7/Q111 compared with Hdh^Q7/Q7 mice using ligand binding experiments (Supplementary file 2), the loss of heteromer expression is not due to a complete loss of receptor expression since by radioligand binding (Supplementary file 2) and mRNA expression analysis (Supplementary file 3) both receptors continue to be expressed.

The next assay has as its target T3, H3R (Mus musculus, UniProt P58406).
T3 construct: gene Hrh3; native receptor, endogenous in mouse brain tissue membranes
The experiment in a line: tissue or organelle. Also noted: species or system brain tissue of 8-month-old Hdh^Q7/Q7 or Hdh^Q7/Q111 mice; radioligand binding to mouse brain region membranes, KD from saturation and competition curves. As to the method: as §1

Where [3] appears, read: Cortex, 8-month-old Hdh^Q7/Q7 mice.
Setting [4] is: Hippocampus, 8-month-old Hdh^Q7/Q7 mice.
Setting [5] is: Hippocampus, 8-month-old Hdh^Q7/Q111 mice.
[6] abbreviates: Striatum, 8-month-old Hdh^Q7/Q7 mice.
Where [7] appears, read: Striatum, 8-month-old Hdh^Q7/Q111 mice.

Read-outs that look alike come from different tables or passages of the source.

T3 sequence (P58406 whole entry): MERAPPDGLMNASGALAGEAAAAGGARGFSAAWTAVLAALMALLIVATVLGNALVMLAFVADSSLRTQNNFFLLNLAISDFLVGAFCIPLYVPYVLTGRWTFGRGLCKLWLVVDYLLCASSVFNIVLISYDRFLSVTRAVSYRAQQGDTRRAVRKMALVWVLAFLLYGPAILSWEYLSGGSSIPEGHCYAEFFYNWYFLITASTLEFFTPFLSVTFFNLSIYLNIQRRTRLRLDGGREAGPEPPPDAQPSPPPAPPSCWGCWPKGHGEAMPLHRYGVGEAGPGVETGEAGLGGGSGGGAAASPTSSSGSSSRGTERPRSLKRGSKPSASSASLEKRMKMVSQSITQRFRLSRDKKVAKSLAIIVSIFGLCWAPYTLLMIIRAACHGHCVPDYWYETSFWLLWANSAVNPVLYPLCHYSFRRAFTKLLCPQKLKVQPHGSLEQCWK
T2 sequence (Q61616 whole entry): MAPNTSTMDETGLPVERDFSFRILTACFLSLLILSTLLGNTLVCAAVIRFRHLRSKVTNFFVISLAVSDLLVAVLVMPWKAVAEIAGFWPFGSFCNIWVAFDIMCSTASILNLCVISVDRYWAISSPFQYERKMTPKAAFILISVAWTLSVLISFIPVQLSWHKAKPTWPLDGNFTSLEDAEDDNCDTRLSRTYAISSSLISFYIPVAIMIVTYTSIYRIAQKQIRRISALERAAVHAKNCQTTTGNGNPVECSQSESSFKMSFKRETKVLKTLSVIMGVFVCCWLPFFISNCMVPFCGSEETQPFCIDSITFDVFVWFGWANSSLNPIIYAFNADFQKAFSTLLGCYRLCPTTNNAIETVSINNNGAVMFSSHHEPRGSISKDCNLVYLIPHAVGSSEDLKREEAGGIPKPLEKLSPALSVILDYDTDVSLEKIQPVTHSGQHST
T1 sequence (Q61616 whole entry): as above

Consider `CN1CCc2cc(Cl)c(O)cc2[C@@H](c2ccccc2)C1` [[^3H] SCH 23390], for which the Kd in assay [1] amounted to 0.3 ± 0.1 nM; in assay [2], 0.16 ± 0.08 nM; on D1R (setting [3]), 0.05 ± 0.01 nM; at D1R (setting [4]) it was 0.03 ± 0.02 nM; at D1R (setting [5]), 0.09 ± 0.07 nM; at D1R (setting [6]) it was 0.17 ± 0.02 nM. At D1R (setting [7]), this compound displayed a Kd of 0.11 ± 0.01 nM.
For the compound `C[C@@H](N)Cc1c[nH]cn1` [[^3H] R-α-methyl histamine], the Kd is 0.22 ± 0.02 nM at H3R (setting [3]); 0.24 ± 0.04 nM at H3R (Cortex, 8-month-old Hdh^Q7/Q111 mice); 0.2 ± 0.01 nM on H3R (setting [4]); 0.37 ± 0.1 nM at H3R (setting [5]); 0.27 ± 0.03 nM on H3R (setting [6]); 0.26 ± 0.03 nM at H3R (setting [7]).
